Measurements: the kinase profiling compilation of Christmann-Franck et al. (2016)

Key:
PIM1 (human) [1] = biological target: PIM1 (human) (UniProt P11309); assay: SelectScreen, TR FRET
PIM2 (human) [2] = biological target: PIM2 (human) (UniProt Q9P1W9); assay: SelectScreen, TR FRET
MAPK7 (human) = MAPK7 (human) (UniProt Q13164); assay: KINOMEscan competition binding; conditions: compound 10.0 µM
MYLK (human) = MYLK (human) (UniProt Q15746); assay: KINOMEscan competition binding; conditions: compound 10.0 µM
PLK1 (human) = PLK1 (human) (UniProt P53350); assay: KINOMEscan competition binding; conditions: compound 10.0 µM
CDK16 (human) = CDK16 (human) (UniProt Q00536); assay: KINOMEscan competition binding; conditions: compound 10.0 µM
PIK3CG (human) = PIK3CG (human) (UniProt P48736); assay: KINOMEscan competition binding; conditions: compound 10.0 µM
PIM1 (human) [3] = biological target: PIM1 (human) (UniProt P11309); assay: KINOMEscan competition binding; conditions: compound 10.0 µM
PIM3 (human) = PIM3 (human) (UniProt Q86V86); assay: KINOMEscan competition binding; conditions: compound 10.0 µM
PLK4 (human) = PLK4 (human) (UniProt O00444); assay: KINOMEscan competition binding; conditions: compound 10.0 µM
CSNK2A2 (human) = CSNK2A2 (human) (UniProt P19784); assay: KINOMEscan competition binding; conditions: compound 10.0 µM
DAPK1 (human) = DAPK1 (human) (UniProt P53355); assay: KINOMEscan competition binding; conditions: compound 10.0 µM
GAK (human) = GAK (human) (UniProt O14976); assay: KINOMEscan competition binding; conditions: compound 10.0 µM
HIPK1 (human) = HIPK1 (human) (UniProt Q86Z02); assay: KINOMEscan competition binding; conditions: compound 10.0 µM
PIM2 (human) [4] = biological target: PIM2 (human) (UniProt Q9P1W9); assay: KINOMEscan competition binding; conditions: compound 10.0 µM
STK17A (human) = STK17A (human) (UniProt Q9UEE5); assay: KINOMEscan competition binding; conditions: compound 10.0 µM
STK17B (human) = STK17B (human) (UniProt O94768); assay: KINOMEscan competition binding; conditions: compound 10.0 µM
[5] = biological target: TYK2 JH2 pseudokinase (human) (UniProt P29597); assay: KINOMEscan competition binding; conditions: compound 10.0 µM
ULK2 (human) = ULK2 (human) (UniProt Q8IYT8); assay: KINOMEscan competition binding; conditions: compound 10.0 µM
DCLK1 (human) = DCLK1 (human) (UniProt O15075); assay: KINOMEscan competition binding; conditions: compound 10.0 µM
RPS6KA1 KD2 (human) = RPS6KA1 KD2 (human) (UniProt Q15418); assay: KINOMEscan competition binding; conditions: compound 10.0 µM
RPS6KA2 KD2 (human) = RPS6KA2 KD2 (human) (UniProt Q15349); assay: KINOMEscan competition binding; conditions: compound 10.0 µM
RPS6KA6 KD2 (human) = RPS6KA6 KD2 (human) (UniProt Q9UK32); assay: KINOMEscan competition binding; conditions: compound 10.0 µM
TTK (human) = TTK (human) (UniProt P33981); assay: KINOMEscan competition binding; conditions: compound 10.0 µM
GSK3A (human) = GSK3A (human) (UniProt P49840); assay: KINOMEscan competition binding; conditions: compound 10.0 µM
PLK3 (human) = PLK3 (human) (UniProt Q9H4B4); assay: KINOMEscan competition binding; conditions: compound 10.0 µM
RPS6KA4 KD2 (human) = RPS6KA4 KD2 (human) (UniProt O75676); assay: KINOMEscan competition binding; conditions: compound 10.0 µM
MAP2K3 (human) = MAP2K3 (human) (UniProt P46734); assay: KINOMEscan competition binding; conditions: compound 10.0 µM

MYLK (human), sequence (Q15746 whole entry, looked up): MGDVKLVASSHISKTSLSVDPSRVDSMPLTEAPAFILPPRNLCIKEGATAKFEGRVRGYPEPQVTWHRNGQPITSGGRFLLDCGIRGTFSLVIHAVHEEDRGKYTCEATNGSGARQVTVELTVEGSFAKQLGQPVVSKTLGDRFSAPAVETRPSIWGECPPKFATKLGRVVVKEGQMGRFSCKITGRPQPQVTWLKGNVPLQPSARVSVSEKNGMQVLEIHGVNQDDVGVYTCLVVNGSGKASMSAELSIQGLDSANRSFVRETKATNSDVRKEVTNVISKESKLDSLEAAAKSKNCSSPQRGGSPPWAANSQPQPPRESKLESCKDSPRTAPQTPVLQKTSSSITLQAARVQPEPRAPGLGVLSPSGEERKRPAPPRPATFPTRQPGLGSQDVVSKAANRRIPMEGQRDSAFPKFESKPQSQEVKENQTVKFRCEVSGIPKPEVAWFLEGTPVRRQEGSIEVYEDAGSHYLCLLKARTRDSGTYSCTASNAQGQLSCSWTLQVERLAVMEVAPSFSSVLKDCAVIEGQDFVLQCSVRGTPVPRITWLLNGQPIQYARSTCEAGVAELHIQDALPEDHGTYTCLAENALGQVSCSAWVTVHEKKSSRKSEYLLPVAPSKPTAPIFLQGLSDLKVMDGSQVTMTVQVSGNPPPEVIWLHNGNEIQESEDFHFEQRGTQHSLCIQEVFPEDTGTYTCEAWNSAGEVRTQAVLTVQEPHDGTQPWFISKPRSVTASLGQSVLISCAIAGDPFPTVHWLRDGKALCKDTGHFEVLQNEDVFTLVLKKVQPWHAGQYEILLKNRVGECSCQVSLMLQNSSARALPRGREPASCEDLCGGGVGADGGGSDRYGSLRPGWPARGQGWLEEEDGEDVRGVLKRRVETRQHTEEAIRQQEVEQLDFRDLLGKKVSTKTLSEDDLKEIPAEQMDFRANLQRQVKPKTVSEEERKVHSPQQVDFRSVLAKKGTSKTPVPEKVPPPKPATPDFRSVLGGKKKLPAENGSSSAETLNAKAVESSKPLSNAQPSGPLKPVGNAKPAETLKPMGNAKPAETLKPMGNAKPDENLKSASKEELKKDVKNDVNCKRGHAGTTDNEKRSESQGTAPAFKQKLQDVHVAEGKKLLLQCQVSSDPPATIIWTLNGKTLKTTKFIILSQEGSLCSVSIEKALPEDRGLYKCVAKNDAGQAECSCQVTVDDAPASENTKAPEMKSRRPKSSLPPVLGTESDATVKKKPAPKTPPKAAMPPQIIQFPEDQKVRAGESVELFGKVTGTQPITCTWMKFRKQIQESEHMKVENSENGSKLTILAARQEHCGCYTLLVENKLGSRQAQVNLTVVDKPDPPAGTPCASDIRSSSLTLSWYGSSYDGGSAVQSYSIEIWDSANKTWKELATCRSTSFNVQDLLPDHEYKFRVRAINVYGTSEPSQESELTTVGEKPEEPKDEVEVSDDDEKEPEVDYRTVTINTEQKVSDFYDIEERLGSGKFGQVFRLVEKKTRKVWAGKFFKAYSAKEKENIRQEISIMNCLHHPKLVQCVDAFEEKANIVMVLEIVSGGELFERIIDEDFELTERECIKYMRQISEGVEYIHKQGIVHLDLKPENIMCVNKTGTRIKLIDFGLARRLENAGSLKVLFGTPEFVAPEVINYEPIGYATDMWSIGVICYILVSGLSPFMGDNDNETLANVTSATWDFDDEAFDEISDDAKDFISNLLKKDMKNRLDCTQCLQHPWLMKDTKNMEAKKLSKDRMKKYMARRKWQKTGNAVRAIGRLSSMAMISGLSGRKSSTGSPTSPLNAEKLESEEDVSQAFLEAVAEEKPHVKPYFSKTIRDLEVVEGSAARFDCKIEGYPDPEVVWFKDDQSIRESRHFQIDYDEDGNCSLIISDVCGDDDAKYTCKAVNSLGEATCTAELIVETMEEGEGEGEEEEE
PIM1 (human), sequence (P11309 whole entry, looked up): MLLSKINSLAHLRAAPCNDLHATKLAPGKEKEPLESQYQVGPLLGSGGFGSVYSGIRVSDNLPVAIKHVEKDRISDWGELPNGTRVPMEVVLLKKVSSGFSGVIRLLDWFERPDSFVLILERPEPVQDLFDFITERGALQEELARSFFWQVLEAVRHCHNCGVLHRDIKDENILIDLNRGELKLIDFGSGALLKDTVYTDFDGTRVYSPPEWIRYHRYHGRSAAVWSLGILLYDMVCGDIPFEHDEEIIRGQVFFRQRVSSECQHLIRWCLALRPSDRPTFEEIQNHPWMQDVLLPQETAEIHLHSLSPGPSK
PIM2 (human), sequence (Q9P1W9 whole entry, looked up): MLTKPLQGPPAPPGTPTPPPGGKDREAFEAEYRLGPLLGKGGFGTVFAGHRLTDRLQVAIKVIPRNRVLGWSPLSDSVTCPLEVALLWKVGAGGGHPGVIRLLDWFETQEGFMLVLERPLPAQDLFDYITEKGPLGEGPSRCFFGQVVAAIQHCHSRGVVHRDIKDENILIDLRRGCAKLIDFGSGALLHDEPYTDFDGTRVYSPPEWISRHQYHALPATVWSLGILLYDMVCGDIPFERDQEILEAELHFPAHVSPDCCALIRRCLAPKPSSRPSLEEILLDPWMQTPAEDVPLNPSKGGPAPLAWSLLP
PIK3CG (human), sequence (P48736 whole entry, looked up): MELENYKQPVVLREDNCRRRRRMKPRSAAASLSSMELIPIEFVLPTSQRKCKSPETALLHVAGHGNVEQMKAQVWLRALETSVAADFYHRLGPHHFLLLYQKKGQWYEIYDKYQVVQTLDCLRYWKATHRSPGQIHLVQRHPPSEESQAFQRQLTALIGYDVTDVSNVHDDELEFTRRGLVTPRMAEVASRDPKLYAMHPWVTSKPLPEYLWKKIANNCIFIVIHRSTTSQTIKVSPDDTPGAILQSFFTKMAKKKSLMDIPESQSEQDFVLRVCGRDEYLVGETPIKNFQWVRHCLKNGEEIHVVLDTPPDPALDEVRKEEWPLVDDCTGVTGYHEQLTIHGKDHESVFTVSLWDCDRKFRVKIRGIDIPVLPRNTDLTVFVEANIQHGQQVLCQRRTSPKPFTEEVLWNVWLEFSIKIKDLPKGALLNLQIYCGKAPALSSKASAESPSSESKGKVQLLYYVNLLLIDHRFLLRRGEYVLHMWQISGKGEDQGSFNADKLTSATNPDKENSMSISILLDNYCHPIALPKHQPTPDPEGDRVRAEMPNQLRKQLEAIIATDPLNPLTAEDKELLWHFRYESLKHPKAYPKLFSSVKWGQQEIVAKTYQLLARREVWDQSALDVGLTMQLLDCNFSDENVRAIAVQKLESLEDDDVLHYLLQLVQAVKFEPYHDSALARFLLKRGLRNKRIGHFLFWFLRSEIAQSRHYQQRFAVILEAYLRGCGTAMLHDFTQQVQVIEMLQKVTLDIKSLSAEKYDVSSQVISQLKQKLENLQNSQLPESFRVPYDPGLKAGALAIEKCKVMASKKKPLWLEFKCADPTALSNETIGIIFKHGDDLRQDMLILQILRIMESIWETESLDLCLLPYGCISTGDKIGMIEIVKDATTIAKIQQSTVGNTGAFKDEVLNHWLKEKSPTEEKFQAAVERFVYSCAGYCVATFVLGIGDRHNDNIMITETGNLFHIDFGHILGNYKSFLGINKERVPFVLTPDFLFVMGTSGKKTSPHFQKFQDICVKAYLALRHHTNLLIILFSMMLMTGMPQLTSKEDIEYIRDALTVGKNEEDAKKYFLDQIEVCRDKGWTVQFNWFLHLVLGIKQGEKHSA
STK17B (human), sequence (O94768 whole entry, looked up): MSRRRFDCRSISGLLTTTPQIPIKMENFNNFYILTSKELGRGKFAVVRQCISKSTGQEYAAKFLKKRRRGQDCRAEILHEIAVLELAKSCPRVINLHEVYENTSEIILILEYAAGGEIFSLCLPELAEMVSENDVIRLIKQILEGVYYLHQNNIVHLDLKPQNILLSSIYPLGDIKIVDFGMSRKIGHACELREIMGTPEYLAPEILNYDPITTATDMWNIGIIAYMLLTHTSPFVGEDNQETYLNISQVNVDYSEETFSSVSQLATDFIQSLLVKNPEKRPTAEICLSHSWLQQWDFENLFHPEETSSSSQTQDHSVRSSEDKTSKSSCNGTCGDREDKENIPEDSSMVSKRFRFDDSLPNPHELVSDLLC
PLK1 (human), sequence (P53350 whole entry, looked up): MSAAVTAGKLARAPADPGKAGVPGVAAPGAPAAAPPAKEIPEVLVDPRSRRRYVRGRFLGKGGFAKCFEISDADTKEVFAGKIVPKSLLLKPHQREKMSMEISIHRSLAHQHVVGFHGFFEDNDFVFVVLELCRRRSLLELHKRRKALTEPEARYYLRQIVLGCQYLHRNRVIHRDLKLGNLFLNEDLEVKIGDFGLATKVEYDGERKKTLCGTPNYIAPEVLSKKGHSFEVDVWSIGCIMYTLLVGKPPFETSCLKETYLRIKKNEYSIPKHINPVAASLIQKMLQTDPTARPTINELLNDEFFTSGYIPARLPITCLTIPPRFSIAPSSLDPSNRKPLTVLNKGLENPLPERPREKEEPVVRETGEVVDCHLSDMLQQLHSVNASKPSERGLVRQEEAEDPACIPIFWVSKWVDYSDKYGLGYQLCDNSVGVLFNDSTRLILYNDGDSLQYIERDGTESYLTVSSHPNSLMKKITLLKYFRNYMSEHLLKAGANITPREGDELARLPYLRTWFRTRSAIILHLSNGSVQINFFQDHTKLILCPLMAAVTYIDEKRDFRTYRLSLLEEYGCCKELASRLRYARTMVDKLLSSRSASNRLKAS

Compound: Cc1cn(-c2cc(NC(=O)c3cccc4cc(-c5ccc(/C=C6\SC(=O)NC6=O)o5)ccc34)cc(C(F)(F)F)c2)cn1
- IC50 (PIM1 (human) [1]): 5630 nM
- IC50 (PIM2 (human) [2]): 1430 nM

Compound: CC(C)Oc1cc(C(=O)N2CCC(N3CCN(C)CC3)CC2)ccc1Nc1ncc2c(n1)N(C1CCCC1)[C@@H]1CCC[C@@H]1C(=O)N2C
- kinase still bound, per cent of control (MAPK7 (human)): 4.8%
- kinase still bound, per cent of control (MYLK (human)): 18%
- kinase still bound, per cent of control (PLK1 (human)): 24%

Compound: NS(=O)(=O)c1ccc(-c2ccc(/C=C3\SC(=S)NC3=O)o2)cc1
- kinase still bound, per cent of control (CDK16 (human)): 10%
- kinase still bound, per cent of control (PIK3CG (human)): 22%
- kinase still bound, per cent of control (PIM1 (human) [3]): 1.8%
- kinase still bound, per cent of control (PIM3 (human)): 2.2%
- kinase still bound, per cent of control (PLK4 (human)): 14%
- IC50 (PIM1 (human) [1]): 305 nM
- IC50 (PIM2 (human) [2]): 177 nM

Compound: N=C1NC(=O)/C(=C/c2ccc(-c3cccc4ccccc34)o2)S1
- IC50 (PIM1 (human) [1]): 2170 nM
- IC50 (PIM2 (human) [2]): 1200 nM

Compound: O=C1NC(=S)S/C1=C\c1ccc(-c2csc3ccccc23)o1
- IC50 (PIM1 (human) [1]): 722 nM
- IC50 (PIM2 (human) [2]): 375 nM

Compound: O=C1NC(=O)/C(=C/c2ccc(-c3ccc(C(=O)Nc4ccc(N5CCNCC5)cc4)cc3)o2)S1
- kinase still bound, per cent of control (CSNK2A2 (human)): 21%
- kinase still bound, per cent of control (DAPK1 (human)): 34%
- kinase still bound, per cent of control (GAK (human)): 26%
- kinase still bound, per cent of control (HIPK1 (human)): 1.1%
- kinase still bound, per cent of control (MYLK (human)): 27%
- kinase still bound, per cent of control (PIK3CG (human)): 17%
- kinase still bound, per cent of control (PIM1 (human) [3]): 1.4%
- kinase still bound, per cent of control (PIM2 (human) [4]): 0.75%
- kinase still bound, per cent of control (PIM3 (human)): 1.2%
- kinase still bound, per cent of control (STK17A (human)): 20%
- kinase still bound, per cent of control (STK17B (human)): 0.65%
- kinase still bound, per cent of control [5]: 14%
- IC50 (PIM1 (human) [1]): 246 nM
- IC50 (PIM2 (human) [2]): 133 nM

Compound: CN1C(=N)NC(=O)/C1=C/c1ccc(-c2cncc3ccccc23)o1
- IC50 (PIM1 (human) [1]): 3560 nM
- IC50 (PIM2 (human) [2]): 3060 nM

Compound: NS(=O)(=O)c1ccc(-c2ccc(C=C3C(=O)c4ccccc4C3=O)o2)cc1
- kinase still bound, per cent of control (ULK2 (human)): 22%

Compound: CC(C)Oc1cc(N2CCC(N(C)C)CC2)ccc1Nc1ncc2c(n1)N1CCC[C@H]1CC(=O)N2C
- kinase still bound, per cent of control (DCLK1 (human)): 7.4%
- kinase still bound, per cent of control (MYLK (human)): 26%
- kinase still bound, per cent of control (RPS6KA1 KD2 (human)): 34%
- kinase still bound, per cent of control (RPS6KA2 KD2 (human)): 9.4%
- kinase still bound, per cent of control (RPS6KA6 KD2 (human)): 24%
- kinase still bound, per cent of control (TTK (human)): 12%

Compound: CCN1CCN(Cc2cc(NC(=O)c3cccc4cc(-c5ccc(/C=C6\SC(=N)NC6=O)o5)ccc34)cc(C(F)(F)F)c2)CC1
- IC50 (PIM1 (human) [1]): 774 nM
- IC50 (PIM2 (human) [2]): 814 nM

Compound: N=C1NC(=O)/C(=C/c2ccc(-c3ccc4c(C(=O)Nc5cccc(C(F)(F)F)c5)cccc4c3)o2)S1
- IC50 (PIM1 (human) [1]): > 10000 nM
- IC50 (PIM2 (human) [2]): 3420 nM

Compound: CN1C(=N)NC(=O)/C1=C/c1ccc(-c2cccc3ccccc23)o1
- kinase still bound, per cent of control (GSK3A (human)): 14%
- kinase still bound, per cent of control (PIM1 (human) [3]): 27%
- kinase still bound, per cent of control (PIM2 (human) [4]): 2.6%
- kinase still bound, per cent of control (PIM3 (human)): 9.6%
- kinase still bound, per cent of control (STK17A (human)): 33%
- kinase still bound, per cent of control (STK17B (human)): 32%
- IC50 (PIM1 (human) [1]): > 10000 nM
- IC50 (PIM2 (human) [2]): 9210 nM

Compound: CC(C)Oc1cc(N2CCC(O)CC2)ccc1Nc1ncc2c(n1)N1CCC[C@H]1CC(=O)N2C
- kinase still bound, per cent of control (PLK1 (human)): 21%
- kinase still bound, per cent of control (PLK3 (human)): 16%
- kinase still bound, per cent of control (RPS6KA4 KD2 (human)): 32%
- kinase still bound, per cent of control (TTK (human)): 5%

Compound: NC1=N/C(=C\c2ccc(-c3ccc(S(N)(=O)=O)cc3)o2)C(=O)N1
- kinase still bound, per cent of control (MAP2K3 (human)): 13%
- kinase still bound, per cent of control (PIM1 (human) [3]): 9.5%
- kinase still bound, per cent of control (PIM3 (human)): 6%
- kinase still bound, per cent of control (RPS6KA4 KD2 (human)): 14%

Compound: N=C1NC(=O)/C(=C/c2ccc(-c3ccc(C(=O)Nc4ccc(N5CCNCC5)cc4)cc3)o2)S1
- IC50 (PIM1 (human) [1]): 151 nM
- IC50 (PIM2 (human) [2]): 214 nM

Compound: CN1C(=N)NC(=O)/C1=C/c1ccc(-c2ccc(S(N)(=O)=O)cc2)o1
- kinase still bound, per cent of control (MAP2K3 (human)): 11%
- kinase still bound, per cent of control (PIM1 (human) [3]): 21%
- kinase still bound, per cent of control (PIM3 (human)): 7.4%
